One assay has as its system E. coli. Kind of assay: Second study, disk clearance zone, E. coli. It is filed as cell-based. The note with it: Escherichia coli; 30 μg/disk.
Another assay deals with Staphylococcus aureus. Kind of assay: Second study, disk clearance zone, Staphylococcus aureus. It is filed as cell-based. Particulars: 30 μg/disk. An excerpt:
Determination of the antimicrobial activity of the composition. The sensitivity of Propionbacterium acnes a microorganism associated with acne and other skin infections (Nishijima, et al. (2000)), Staphylococcus aureus a bacterial strain found in infected wounds and skin eruptions including acne (Nishijima, et al. 1994)), Staphylococcus epidermidis a bacterial strain occurring in a variety of opportunistic bacterial skin infections and in acne (Nishijima, S. et al. (2000)) and Streptococcus mutans, a bacterial strain associated with the progression of dental caries (Sanchez-Perez, L. et al. (2001)), Candida albican, and Streptococcus epidermidis; to Coleus forskohlii oil using disk diffusion methodology was determined. One strain each of Propionbacterium acnes (ATCC 11827), Staphylococcus aureus (ATCC 29213), Streptococcus mutans (ATCC 25175), and Staphylococcus epidermidis (ATCC 14990) Candida albicans (ATCC 11006) and Streptococcus epidermidis (ATCC 14990) were obtained from ATCC. Propionbacterium acnes culture were grown in Reinforced Clostridia media under anaerobic conditions at 37° C. for 24 hours. Staphylococcus aureus, Streptococcus mutans and Staphylococcus epidermidis cultures were cultured in Trypticase Soy Broth under aerobic conditions at 37° C. for 24 hours. […] Inhibition zones were measured to the closest one tenth of one millimeter using a caliper. […]

As usually defined, the zone of inhibition is the extent of the growth-free halo in a diffusion test. Higher therefore signals a stronger effect on the plate.

For the compound `O=C(N[C@H](CO)[C@H](O)c1ccc([N+](=O)[O-])cc1)C(Cl)Cl` [Chloramphenicol], the zone of inhibition at 30 µg/disc with E. coli turned out to be 34 mm; in the assay on Staphylococcus aureus, 20 mm.

(Values after patent US20020160066A1, “Composition and methods containing an antimicrobial essential oil extracted from Coleus forskohlii” (priority 2001, published 2002).)
